Assay results published in ChEMBL document CHEMBL5143717 (J Med Chem, 2022).

Experiments:
[1] = AUClast in rat at 2 mg/kg, po; format: ADME, organism-based; design: time 0 - last, dose 2 mg/kg, route po; settings: in vivo
[2] = Drug concentration in rat at 2 mg/kg, po measured after 24 hrs; format: ADME, organism-based; settings: in vivo; for concentration at 24 h: read-out: Drug uptake; for Drug uptake: po, 2 mg/kg, 24 h, BLD = below limit of detection
[3] = Volume of distribution at steady state in dog at 1 mg/kg, po or 0.5 mg/kg, iv; format: ADME, organism-based, Canis lupus familiaris; settings: in vivo
[4] = Oral bioavailability in dog at 1 mg/kg; format: ADME, organism-based, Canis lupus familiaris; settings: in vivo
[5] = Oral bioavailability in cynomolgus monkey at 1 mg/kg; format: ADME, organism-based, Macaca fascicularis; settings: in vivo
[6] = Volume of distribution at steady state in rat at 2 mg/kg, po or 0.5 mg/kg, iv; format: ADME, organism-based; settings: in vivo
[7] = Volume of distribution at steady state in cynomolgus monkey at 1 mg/kg, po or 0.5 mg/kg, iv; format: ADME, organism-based, Macaca fascicularis; settings: in vivo
[8] = Oral bioavailability in rat at 2 mg/kg; format: ADME, organism-based; settings: in vivo

SMILES | AUC(0-t) [1] [µM·h] | concentration at 24 h [2] [nM] | also measured
COc1cc(OCc2coc(N3CCOCC3)n2)c2cc(-c3cn4nc(OC)sc4n3)oc2c1 | 13.1 | 69 | 
COc1cc(OCc2csc(-c3ccc(S(C)(=O)=O)cc3)n2)c2cc(-c3cn4nc(OC)sc4n3)oc2c1 | 0.26 | 2 | 
COc1cc(OCc2csc(N3CC4CCC(C3)O4)n2)c2cc(-c3cn4nc(OC)sc4n3)oc2c1 | 1.9 | 12 | 
COc1cc(OCc2cccc(-c3ccc(C#N)cn3)c2)c2cc(-c3cn4nc(OC)sc4n3)oc2c1 | 0.91 | 13 | 
CNC(=O)c1ccc(-c2nc(COc3cc(OC)cc4oc(-c5cn6nc(OC)sc6n5)cc34)cs2)cc1 | 0.04 |  | Drug uptake [2]: Bld
COc1cc(OCc2csc(-c3ccccc3)n2)c2cc(-c3cn4nc(OC)sc4n3)oc2c1 | 8 | 89 | 
COc1cc(OCc2csc(-c3ccc(C(=O)N4CCC(F)(F)C4)cc3)n2)c2cc(-c3cn4nc(OC)sc4n3)oc2c1 | 0.58 | 1.8 | 
COc1cc(OCc2csc(N3CCCOCC3)n2)c2cc(-c3cn4nc(OC)sc4n3)oc2c1 | 5 | 49 | 
COc1cc(OCc2cccc(-c3ccc(C(F)(F)F)cn3)c2)c2cc(-c3cn4nc(OC)sc4n3)oc2c1 | 0.83 |  | Drug uptake [2]: Bld
COc1cc(OCc2nc(N3CCOCC3)sc2C)c2cc(-c3cn4nc(OC)sc4n3)oc2c1 |  | 230 | Vdss [3]: 5.9 L/kg; AUClast [1]: 23.7 µM·h; bioavailability [4]: 19%; bioavailability [5]: 26%; Vdss [6]: 1.4 L/kg; Vdss [7]: 11 L/kg; F [8]: 21%
COc1cc(OCc2cccc(-c3ccc(C#N)cc3)c2)c2cc(-c3cn4nc(OC)sc4n3)oc2c1 | 1.2 | 13 | 
COc1cc(OCc2cccc(-c3ccoc3)c2)c2cc(-c3cn4nc(OC)sc4n3)oc2c1 | 10.9 | 140 | 
COc1cc(OCc2csc(-c3ccc(C(C)(C)O)cc3)n2)c2cc(-c3cn4nc(OC)sc4n3)oc2c1 | 0.92 | 6.7 | 
COc1cc(OCc2csc(-c3ccc(C(N)=O)cc3)n2)c2cc(-c3cn4nc(OC)sc4n3)oc2c1 |  |  | Drug uptake [2]: Bld
COc1cc(OCc2cccc(-c3cnc(OC)cn3)c2)c2cc(-c3cn4nc(OC)sc4n3)oc2c1 | 1.4 | 7.7 | 
COc1cc(OCc2csc(N3CCN(C)CC3)n2)c2cc(-c3cn4nc(OC)sc4n3)oc2c1 | 1.8 | 5 | 
COc1cc(OCc2cccc(-c3cnc(OC)nc3)c2)c2cc(-c3cn4nc(OC)sc4n3)oc2c1 | 2 | 29 | 

SMILES | AUC(0-t) [1] [µM·h] | concentration at 24 h [2] [nM] | also measured
COc1cc(OCc2nc(N3CCOCC3)sc2C(F)(F)F)c2cc(-c3cn4nc(OC)sc4n3)oc2c1 | 2.4 | 14 | 
COc1cc(OCc2csc(N3CCCCC3)n2)c2cc(-c3cn4nc(OC)sc4n3)oc2c1 | 21.6 | 340 | 
COc1cc(OCc2csc(-c3ccc(C(F)(F)F)cc3)n2)c2cc(-c3cn4nc(OC)sc4n3)oc2c1 | 1.3 | 9 | 
COc1cc(OCc2csc(-c3ccc(C(=O)N4CCCC4)cc3)n2)c2cc(-c3cn4nc(OC)sc4n3)oc2c1 | 3 | 4.7 | 
COc1ccc(-c2cccc(COc3cc(OC)cc4oc(-c5cn6nc(OC)sc6n5)cc34)c2)nc1 | 3.3 | 22 | 
COc1cc(OCc2csc(C3CCC(F)(F)CC3)n2)c2cc(-c3cn4nc(OC)sc4n3)oc2c1 | 0.8 | 21 | 
COc1cc(OCc2csc(C3CCOCC3)n2)c2cc(-c3cn4nc(OC)sc4n3)oc2c1 | 3.7 | 28 | 
COc1cc(OCc2cccc(-c3ccc(OC)nc3)c2)c2cc(-c3cn4nc(OC)sc4n3)oc2c1 | 3.5 | 19 | 
COc1cc(OCc2csc(N3CCOCC3)n2)c2cc(-c3cn4nc(OC)sc4n3)oc2c1 | 16.2 | 240 | 
COc1cc(OCc2ccnc(-c3ccccc3)n2)c2cc(-c3cn4nc(OC)sc4n3)oc2c1 | 7.4 | 94 | 
COc1cc(OCc2cccc(OCc3ccccc3)c2)c2cc(-c3cn4nc(OC)sc4n3)oc2c1 | 0.66 | 3 | 
COc1cc(OCc2ccccc2)c2cc(-c3cn4nc(OC)sc4n3)oc2c1 | 5.5 | 46 | 
COc1cc(OCc2cccc(N3CCOCC3)n2)c2cc(-c3cn4nc(OC)sc4n3)oc2c1 | 7.3 | 93 | 
COc1cc(OCc2ccnc(N3CCOCC3)n2)c2cc(-c3cn4nc(OC)sc4n3)oc2c1 | 7.5 | 86 | 
COc1cc(OCc2cc(C(F)(F)F)ccc2C)c2cc(-c3cn4nc(OC)sc4n3)oc2c1 | 1.9 | 12 | 
COc1cc(OCc2csc(-c3ccc(C(=O)N(C)C)cc3)n2)c2cc(-c3cn4nc(OC)sc4n3)oc2c1 [BMS-986141] |  | 4.7 | Vdss [3]: 2.7 L/kg; AUClast [1]: 3.1 µM·h; bioavailability [4]: 25%; bioavailability [5]: 36%; Vdss [6]: 2.7 L/kg; Vdss [7]: 14 L/kg; F [8]: 31%
